# Patent US8796336B2, “Methoxypolyethylene glycol chelate and uses thereof” (Eastern Virginia Medical School, priority 2006, dated 2014)
# Experiments:
# [1] = tested on: retinal ganglion cells (RGC); experiment: NMDA retinal damage model, scotopic electroretinogram A and B waves; type: in vivo, rats; details: for A wave, % Baseline, Intravitreal / B wave, % Baseline, Intravitreal: intravitreal 2 mM co-administered with 2 ul 10 mM NMDA; for A wave, % Baseline, Topical / B wave, % Baseline, Topical: topical 100 mM, 20 μl 3 times per day, 5 days prior and 3 days post-NMDA
# Method: Changes in electroretinogram (ERG) A and B waves have been used as indicators of RGC damage. To examine RGC neuroprotection, 2 ul intravitreal injections of 10 mM NMDA, sufficient to change ERG A and B-waves within 2 weeks, were challenged with co-administered intravitreal (2 mM) or topical 100 mM MPDTE, MPSEDE and amifostine in normal rats unilaterally. For topical administration, rats were pretreated for 5 days prior and 3 days post-NMDA administration with the agents at a frequency of 3 times per day with 20 μl agent. Scotopic ERG changes were measured in normal rats. Rats were dark adapted for at least 4 hrs. Eyes were dilated with atropine after which proparacaine and methylcellulose gel were applied topically. Custom made AgCl electrodes (64-1317, Warner Instruments, Hamden, Conn.) were placed on the apex of the cornea. Stimuli consisted of 10-microsec flashes of unattenuated white light generated by Ganzfield bowl photo stimulator (Grass Instruments, PS22, Quincy, Mass.). Data from each eye was recorded separately with a driver amplifier (Grass Instruments, Model 7DAF Polygraph, Quincy, Mass.). Data was acquired digitally via DASYLab (Bedford, N.H.). The contralateral normal eye served as an age matched negative control, e.g. response in a normal, undamaged eye. Differences in amplitude of the A-wave and B-waves between the treated eye and the contralateral eye and between treatment groups were calculated.
# [2] = tested on: intraocular pressure (IOP); experiment: Topical application for IOP measurements on rat surgical glaucoma (ocular hypertensive) model; type: in vivo, male SpragueDawley rats
# Method: Ocular hypertension was induced in 9 male SpragueDawley rats, weighing between 400 to 500 grams. Under general anesthesia with acepromazine maleate (12 mg/Kg) and ketamine (80 mg/Kg), IP, and topical proparacaine (0.5%), dissection of the conjunctiva was made with fine cuts. To reduce the stimulus for revascularization or neovascularization, dissection of the right eye was limited to the area immediately surrounding the vortex veins. Three of four vortex veins were exposed and ligated using 9.0 nylon sutures. Criterion for inclusion into the study was an intraocular pressure (IOP) increase of 5 mm Hg or more when compared to […] baseline IOP. Within 6 weeks, the IOP of all the operated eyes increased at least 5 mm Hg compared to baseline. National Institutes of Health Guidelines and Association for Research in Vision and Ophthalmology statement for the Use and Care of Animals were followed in this study.
# Prior to initiation of treatment, baseline IOP was obtained in glaucoma rat models. IOP was measured via a specially modified Goldmann applanation tonometer (HAAG-STREIT, Bern, Switzerland) under sedation. Measurements are averages of two consecutive readings and were made at the same time of day and by the same observers.
# Rats were treated topically with 20 μl of MP compounds (0.3-100 mM; n=3-6) on the operated eyes. […]
# [3] = tested on: H9C2 cells; experiment: Doxorubicin chemotoxicity on H9C2 cells, intracellular calcium by fluo-3 AM; type: cell-based, rat; details: 10 min exposure to 50 μM doxorubicin, cells without MPDTE pretreatment
# Method: H9C2 cells, which are used as models for rat striated muscle, were cultured using techniques described previously (Lattanzio, F A Jr., Tiangco, D., Osgood, C., Beebe, S., Kerry, J. and Hargrave B Y. Cocaine increases intracellular calcium and reactive oxygen species, depolarizes mitochondria, and activates genes associated with heart failure and remodeling. Cardiovascular Toxiology (20050 5: 377-389). Fluorescent calcium indicator and ROS indicator were used to determine if the reported increase in intracellular calcium and ROS activity occurred and whether these changes were reduced in the presence of 2 mM MPSEDE or MPDTE. Cells were measured using a Zeiss 510 fluorescent confocal microscope as described in Lattanzio et al, 2005.
# H9C2 cells, a rat myocyte model, were cultured in MEM until confluent using techniques described in Lattanzio et al, 2005. The cells were treated with 5 μM fluo-3 AM, a fluorescent calcium indicator, for 30 min at 37 C, washed and then exposed to 50 μM doxorubicin (a supermaximal toxic dose), in the presence or absence of 30 min pretreatment with 2 mM MPDTE. Doxorubicin increases intracellular calcium in cardiac cells by disrupting calcium homeostasis through the production of free radical damage and subsequent membrane damage. […] Protection may have occurred due to a combination of free radical scavenging and calcium chelation.
Molecule,"A wave, % Baseline, Intravitreal [1]","B wave, % Baseline, Intravitreal [1]","A wave, % Baseline, Topical [1]","B wave, % Baseline, Topical [1]","IOP reduction of the components ([2]; MP or DTE administered alone or together, not as great as with MPDTE, FIG. 10)","IOP reduction ([2]; single topical dose of 10-100 mM, FIG. 5-7)",reduction of NMDA damage ([1]; both intravitreal and topical administration (Table 1)),"reduction of NMDA damage ([1]; co-administration with NMDA, at the dose tested)",increase of intracellular calcium [3]
"CN[C@H](CC(=O)O)C(=O)O [NMDA, N-methyl-D-aspartate]",51.2 % Baseline,68.4 % Baseline,51.2 % Baseline,68.4 % Baseline,–,–,–,–,–
polyethylene glycol monomethyl ether [MP],–,–,–,–,reduction in IOP,–,–,–,–
"NCCCNCCSP(=O)(O)O [amifostine, S-2-[3-aminopropylamino]ethylphosphorothioate]",94.2 % Baseline,83.3 % Baseline,69.4 % Baseline,99.3 % Baseline,–,–,–,–,–
methoxypolyethlene glycol thioester of ethylenediaminetetraacetic acid methyl triester [MPSEDE],76.2 % Baseline,69.6 % Baseline,95.9 % Baseline,93.7 % Baseline,–,significantly reduced IOP,significantly reduced NMDA damage,"trend to reduce NMDA damage, but this was not significant",–
COc1cccc2c1C(=O)c1c(O)c3c(c(O)c1C2=O)C[C@@](O)(C(=O)CO)C[C@@H]3O[C@H]1C[C@H](N)[C@H](O)[C@H](C)O1 [doxorubicin],–,–,–,–,–,–,–,–,59.4%
